Legend:
[1] = Serum corticosterone in rats; details: CDB-4124 10 or 20 mg/kg, RU 486 10 mg/kg, progesterone 10 mg/kg
[2] = system: pre-menopausal adult women diagnosed with endometriosis; assay: Six month endometriosis study: pain diaries and pain intensity surveys; assay type: in vivo, human; details: for pain free days, percent: 180 day treatment period
Description: Pain reduction also occurred more rapidly than with the active control, Lucrin®. The response of pain to treatment in this study was analyzed in two ways. Patients in the study maintained daily pain diaries to record the severity and frequency of pain. In addition, at each office visit, patients filled out endometriosis symptom surveys that included a questionnaire that evaluated intensity of pain on a bad day on a scale of 0-10 with 10 being the greatest intensity. […] This decrease in duration of pain was statistically better (p=0.0012) than the 117.8 (74%; standard deviation 51.4 days) pain free days achieved with Lucrin n. […] Patients on CDB-4124 12.5 mg and 25 mg doses had 115.9 (66%; standard deviation 69.2 days) and 133.6 (75%; standard deviation 27.4 days) pain free days, respectively. […] The 25 mg and 12.5 mg doses of CDB-4124 were not statistically different from Lucrin®. […] The intensity of pain was asked by the question: “On a scale of 1-10, with 0 being no pain and 10 being extreme pain, how intense was your pain on a bad day?” The mean scores for intensity of pain at baseline were 6.3 for the CDB-4124 groups and 6.1 for the Lucrin® group. […] At month three all four active treatment groups had satistically significant reduction in pain compared with baseline, with the following scores: 3.7 (p=0.03) for 12.5 mg CDB-4124, 3.2 (p=0.03) for 25 mg CDB-4124, 1.6 (p=0.015) for 50 mg CDB-4124 and 1.5 (p=0.016) for Lucrin®. These dose related reductions continued until month six when the values for pain intensity were 2.0 (p=0.008), 2.8 (p=0.023), 0.6 (p=0.004) and 0.7 (p=0.016), respectively. Two months after stopping treatment pain returned and was of similar intensity in all four treatment groups.

[3] = system: rabbit progesterone receptor (rbPR) and glucocorticoid receptor (rbGR); assay: Receptor-binding assays, ratio of relative binding affinities rbPR/rbGR; details: ratio of relative binding affinities (RBA = EC50 of standard/EC50 of test compound x 100) for rbPR and rbGR
Description: Certain antiprogestins were tested in receptor-binding assays for their ability to bind rabbit progesterone receptor (rbPR) and glucocorticoid receptor (rbGR). Briefly, cytosol containing PR or GR were prepared in TEGMD buffer (10 mM Tris, pH 7.2, 1.5 mM EDTA, 0.2 mM sodium molybdate, 10% glycerol, 1 mM DTT) from uterus or thymus, respectively, of estradiol-primed immature rabbits. For PR binding, the cytosol was incubated with 6 nM 1,2-[^3H]progesterone (50.0 Ci/mmole) and competitors were added at concentrations from 2 to 100 nM. For binding to GR, the cytosol was incubated with 6 nM 6,7-[^3H]-dexamethasone (40 Ci/mmol) and test compounds were added at concentrations from 20 to 100 nM. After overnight incubation at 4 C, bound and unbound [^3H] steroids were separated by addition of dextran-coated charcoal and centrifugation at 2100×g for 15 min at 4 C. Supernatants containing the [3H]-steroid receptor complexes were decanted into vials containing 4 ml Optifluor (Packard Instrument Co.), vortexed, equilibrated in a liquid scintillation counter for 30 minutes and then counted for 2 minutes. The EC50 (Effective Concentration) for each standard curve and each of the compound curves was determined by entering the counting data into a four parameter sigmoidal computer program (RiaSmart® Immunoassay Data Reduction Program, Packard Instrument Co., Meriden, Conn.). Relative binding affinity (RBA) for each compound was calculated using the following equation: EC50 of standard/EC50 of test compound×100. The standards for the PR and GR assays were unlabeled progesterone and dexamethasone, respectively. The results of these experiments are summarized in Table 1, as a ratio of the relative binding affinities of each compound for the rbPR and rbGR receptors (rbPR/rbGR).

[4] = Estrogenic, androgenic, anti-estrogenic and anti-androgenic activities
Serum cortisol in rats = assay type: in vivo, rat
Description: These higher levels were in the range of 3-4 ug/dl (30-40 ng/ml).

[5] = Six month endometriosis study: estrogen concentrations and biomarkers of bone resorption; details: women
Description: Thirty-nine pre-menopausal adult women diagnosed with endometriosis were the subject of a six month study of Proellex™ (CDB-4124) in the treatment of endometriosis. The study included three dose levels of CDB-4124 as well as a positive control arm. The positive control was Lucrin®, a GnRH agonist, commonly used for the treatment of endometriosis (also known as Lupron®). CDB-4124 was administered in a double blinded fashion as a daily oral capsule at dosages of 12.5mg/day (n=2), 25mg/day (n=3) and 50mg/day (n=3). Another group (n=4) were injected with a slow release formulation of Lucrin® once per month as a positive control.

Compound: COCC(=O)[C@@]1(OC(C)=O)CC[C@H]2[C@@H]3CCC4=CC(=O)CCC4=C3[C@@H](c3ccc(N(C)C)cc3)C[C@@]21C [CDB-4124, 21-methoxy-17α-acetoxy-11β-(4 N,N-dimethylaminophenyl)-19-norpregna-4,9-diene-3,20-dione]
- differences in serum corticosterone between groups [1]: No differences
- mean score for intensity of pain on a bad day (scale 0-10) ([2]; baseline): 6.3
- score for intensity of pain on a bad day (scale 0-10) ([2]; month six, 12.5 mg/day): 2.0
- score for intensity of pain on a bad day (scale 0-10) ([2]; month six, 25 mg/day): 2.8
- score for intensity of pain on a bad day (scale 0-10) ([2]; month six, 50 mg/day): 0.6
- score for intensity of pain on a bad day (scale 0-10) ([2]; month three, 12.5 mg/day): 3.7
- score for intensity of pain on a bad day (scale 0-10) ([2]; month three, 25 mg/day): 3.2
- score for intensity of pain on a bad day (scale 0-10) ([2]; month three, 50 mg/day): 1.6
- pain free days over the 180 day treatment period ([2]; women, 12.5 mg/day oral): 115.9 days
- pain free days, percent ([2]; women, 12.5 mg/day oral): 66%
- pain free days over the 180 day treatment period ([2]; women, 25 mg/day oral): 133.6 days
- pain free days, percent ([2]; women, 25 mg/day oral): 75%
- days of pain over the first three months ([2]; women, 50 mg/day oral): less than 1 day
- pain free days over the 180 day treatment period ([2]; women, 50 mg/day oral): 170 days
- pain free days, percent ([2]; women, 50 mg/day oral): 96%
- rbPR/rbGR [3]: 1.58
- estrogenic, androgenic, anti-estrogenic, and anti-androgenic activities [4]: lack estrogenic, androgenic, anti-estrogenic, and anti-androgenic activities
- levels of serum cortisol versus control group (Serum cortisol in rats; 10 mg/kg, 21 days of chronic dosing): significantly higher
- effect of increasing doses on serum cortisol (Serum cortisol in rats; FIG. 2): dose-dependent
- estrogen concentrations (mean) ([5]; all doses of CDB-4124 (12.5, 25, 50 mg/day)): > 40 pg/mL
- biomarkers of bone resorption compared with baseline ([5]; three and six months of treatment): no significant changes

From patent publication US20090118253A1, “COMPOSITIONS AND METHODS FOR TREATING DYSFUNCTIONAL UTERINE BLEEDING” (REPROS THERAPEUTICS INC., priority 2007, published 2009)
